Test results as given in patent US20250134828A1, “MOLECULAR SOLID SUSPENSIONS FOR TRANSDERMAL DRUG DELIVERY” (Starton Therapeutics, Inc., priority 2023, published 2025).
Where two headings read alike, the source gives them in different places.

Legend:
[1] = Drug product stability: potency and degradation products by relative retention time, liquid chromatography; format: physicochemical; details: with panthenol and/or other humectants; long term stability studies at room temperature and above 40° C.
Excerpt: In Example 9, the effect of the incorporation of a humectant (e.g., panthenol) into the molecular solid suspension on the API stability and permeability is shown. […] In the tables below, TDS-009 includes 8 wt. % LLD, 5 wt. % Panthenol, 10% Poloxamer P407, 5 wt. % crospovidone and 22.5 wt. % Brij L4 in the presence of 49.5 wt. % DuroTak 87-4098 acrylic PSA, while TDS-011 is the same as TDS-009 without presence of 5 wt. % Panthenol, making up for the 5 wt. % difference with additional DuroTak 87-4098 acrylic PSA for a total of 54.5 wt. %.
Generally, the incorporation of panthenol into the molecular solid suspension results in a 10-fold reduction in hydrolytic degradation.
Each of the above formulations was protected from light, but not from ambient storage conditions of about 21° C. and ambient relative humidity.

[2] = In vitro permeation (flux) test, modified Franz vertical diffusion cell, Strat-M synthetic membrane; format: in vitro ADME
Description: For in vitro permeation testing, the prepared transdermal formulations in the following examples were subjected to a flux (in vitro permeation) test as follows with either full-split thickness human cadaver skin or Strat-M® synthetic membrane. The full-split thickness human cadaver skin is prepared by thawing at room temperature in DI water, after which it is placed into a 55° C. water bath for a few minutes. After removal from elevated temperature water bath, the stratum corneum layer is removed, inspected, blotted, and cut into suitable sized samples for placement on a modified Franz vertical diffusion cell. Meanwhile, the Strat-M® synthetic membrane is utilized as instructed by the Millipore-Sigma instruction guide on its use. The patches are die cut to a 5/16″ diameter (˜0.5 cm^2) and affixed to the skin with use of an overlay to secure patch to skin. Receiver media is either standard saline (0.9% NaCl in DI water) or a fixed concentration (1%-5%) of povidone in DI Water. Sample volume is 5 mL, Franz cell volume is 5 mL. […] Actual patch size is 0.5 cm^2 with an effective flux area of about 0.6 cm^2. Aliquots taken are analyzed by HPLC method for each independent API. Typically, 3-5 replicates per formulation are performed to ensure adequate statistical significance is obtained for each study.

[3] = format: in vitro ADME
[4] = cited from earlier work; for Water Sol: Table 2

Nc1cccc2c1CN(C1CCC(=O)NC1=O)C2=O (centres unmarked) [lenalidomide]
hydrolytic degradation [1]: inhibits hydrolytic degradation
observed flux rate ([2]; 4 wt. % drug formulation, FIGS. 13-14): 2.4 μg/cm^2/hr
average flux rate ([2]; 6 wt. % lenalidomide without panthenol, FIGS. 13-14): 4.2 μg/cm^2/hr
average flux rate ([2]; 6 wt. % lenalidomide without panthenol, FIGS. 15-16): 5.1 μg/cm^2/hr
overall permeation relative to same formulation excluding panthenol ([2]; 6 wt. % lenalidomide, 5 wt. % panthenol, FIGS. 13-14): about 1.2 times
overall permeation relative to same formulation excluding panthenol ([2]; 6 wt. % lenalidomide, 5 wt. % panthenol, FIGS. 15-16): about 1.5 times
average flux rate ([2]; 6 wt. % lenalidomide, 5 wt. % panthenol, after about the 8 hour time point, FIGS. 13-14): 5.4 μg/cm^2/hr
average flux rate ([2]; 6 wt. % lenalidomide, 5 wt. % panthenol, after about the 8 hour time point, FIGS. 15-16): 7.5 μg/cm^2/hr
average flux rate ([2]; 10 wt. % lenalidomide without panthenol, FIGS. 11-12): 3.4 μg/cm^2/hr
overall permeation relative to same formulation excluding panthenol ([2]; 10 wt. % lenalidomide, 5 wt. % panthenol, FIGS. 11-12): about 1.4 times
average flux rate ([2]; 10 wt. % lenalidomide, 5 wt. % panthenol, after about the 8 hour time point, FIGS. 11-12): 4.7 μg/cm^2/hr
average flux ([2]; HLB below 12 surfactants (O3, O5) with poloxamer P407 vs without poloxamer, FIG. 21): increased
average flux ([2]; at 24 hours, with both humectant and high HLB nonionic surfactant (panthenol and P407), low HLB surfactant O3, FIG. 17): about 6 μg/cm^2/hr
average flux ([2]; formulations with greater than about 15 wt. % O3 vs about 15 wt. % or less, FIG. 19): significantly higher
average flux ([3]; formulations with greater than about 15 wt. % O3 vs about 15 wt. % or less, FIG. 18): significantly higher
average flux ([3]; nonionic surfactants with HLB below 12 (O3, O5) vs HLB above 12 (O10, O20), FIG. 20): increased

Cc1cc2c(s1)Nc1ccccc1N=C2N1CCN(C)CC1 [olanzapine, 2-methyl-10-(4-methyl-1-piperazinyl)-4H-thieno-[2,3-b][1,5]benzo-diazepine]
depletion ([2]; 5 wt. % olanzapine molecular solid suspension with Laureth-4, after about 24 hours): 100%
increase in availability (average flux) at about 8-hour time point ([2]; 5 wt. % olanzapine molecular solid suspension with Laureth-4 vs comparators, FIG. 3): about 16 ×
increase in slope for cumulative flux ([2]; 5 wt. % olanzapine, 5 wt. % Kollidon CLM, 20 wt. % Laureth-4, 70 wt. % Durotak 87-4098 vs formulations without Laureth-4, FIG. 4): approximately 1.2 ×
depletion ([2]; other two olanzapine formulations (no Laureth-4), over 72 hours): 60%

C[C@@H]1C[C@H]2[C@@H]3CCC4=CC(=O)C=C[C@]4(C)[C@@]3(F)[C@@H](O)C[C@]2(C)[C@@]1(O)C(=O)CO [dexamethasone]
increase in slope (average flux and cumulative flux) ([2]; 5 wt. % dexamethasone, 5 wt. % Kollidon CLM, 20 wt. % Laureth-4, 70 wt. % Durotak 87-4098 vs comparators, FIGS. 9-10): almost an infinite increase

C#C[C@]1(O)CC[C@H]2[C@@H]3CCc4cc(O)ccc4[C@H]3CC[C@@]21C [Ethinyl Estradiol]
Water Sol [4]: ~0.1 mg/mL

CN1C2CCCC1CC(NC(=O)c1nn(C)c3ccccc13)C2 (centres unmarked) [Granisetron]
Water Sol [4]: ~40 mg/mL
water solubility [4]: less than 0.1 mg/mL

Clc1cccc(Cl)c1N=C1NCCN1 [Clonidine]
Water Sol [4]: ~1 mg/mL

O=C1CC[C@H](N2Cc3c(OCc4ccc(CN5CCOCC5)cc4)cccc3C2=O)C(=O)N1 [iberdomide]
water solubility [4]: less than 2 mg/mL
